Consider nine molecules from US20250002471A1 (Gilead Sciences, Inc., priority 2020, published 2025).

SMILES strings stand for the structures. Like-named read-outs stand apart in the source and are kept apart here.

In experiment [1] the target is T1, TLR7 (Homo sapiens, UniProt Q9NYK1).
T1 construct: lymphocytes, monocytes and dendritic cells that express TLR7, TLR8 and TLR9; endogenous in cells; host or cells: human PBMCs from healthy donors
T1 sequence (Q9NYK1 27-1049): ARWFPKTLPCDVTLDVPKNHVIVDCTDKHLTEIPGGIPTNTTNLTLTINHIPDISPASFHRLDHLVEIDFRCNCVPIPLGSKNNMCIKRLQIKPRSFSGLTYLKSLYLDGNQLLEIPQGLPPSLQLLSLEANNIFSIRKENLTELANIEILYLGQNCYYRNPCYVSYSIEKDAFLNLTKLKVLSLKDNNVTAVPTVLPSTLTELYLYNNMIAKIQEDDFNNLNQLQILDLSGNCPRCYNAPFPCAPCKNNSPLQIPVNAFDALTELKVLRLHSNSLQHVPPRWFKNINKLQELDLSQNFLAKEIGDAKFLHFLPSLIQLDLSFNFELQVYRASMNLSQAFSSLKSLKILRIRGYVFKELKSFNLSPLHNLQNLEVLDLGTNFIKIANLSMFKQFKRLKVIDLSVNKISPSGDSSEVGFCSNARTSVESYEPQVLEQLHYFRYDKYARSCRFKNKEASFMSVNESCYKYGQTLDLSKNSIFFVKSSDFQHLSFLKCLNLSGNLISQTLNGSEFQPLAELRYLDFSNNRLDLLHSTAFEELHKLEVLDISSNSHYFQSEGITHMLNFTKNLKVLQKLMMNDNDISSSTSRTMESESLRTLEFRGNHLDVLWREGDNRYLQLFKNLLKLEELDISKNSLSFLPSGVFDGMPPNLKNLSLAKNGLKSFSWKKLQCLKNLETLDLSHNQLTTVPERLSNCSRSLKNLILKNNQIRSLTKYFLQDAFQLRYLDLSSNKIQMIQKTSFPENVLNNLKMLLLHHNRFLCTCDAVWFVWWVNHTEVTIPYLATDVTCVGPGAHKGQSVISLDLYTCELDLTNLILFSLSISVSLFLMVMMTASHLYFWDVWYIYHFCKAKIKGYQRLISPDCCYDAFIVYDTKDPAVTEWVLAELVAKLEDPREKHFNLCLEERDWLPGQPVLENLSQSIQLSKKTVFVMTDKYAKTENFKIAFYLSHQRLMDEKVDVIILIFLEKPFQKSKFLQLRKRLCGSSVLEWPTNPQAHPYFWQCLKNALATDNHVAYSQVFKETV
Description: Human PBMC cell-based assay, TLR7 agonist GS-986 stimulation, cytokine (IL-6 and IFNα) readout. Conditions: human PBMCs, read-out: TLR-7 EC50. The procedure, abridged:
(§1)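 Readout is IL-6 and IFNα in supernatants, quantified by electrochemiluminescence, with EC50 from a sigmoidal fit of cytokine versus concentration. Healthy-donor human PBMCs, 100,000 per well, got antagonist for 1 h at 37 °C, then 6 h agonist exposure: TLR7 via GS-986 at 400 nM final, TLR9 via ODN-2216 at 3 μM final.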

Experiment [2] concerns the target T2, TLR9 (Homo sapiens, UniProt Q9NR96).
T2 construct: lymphocytes, monocytes and dendritic cells that express TLR7, TLR8 and TLR9; endogenous in cells; host or cells: human PBMCs from healthy donors
T2 sequence (Q9NR96 26-1032): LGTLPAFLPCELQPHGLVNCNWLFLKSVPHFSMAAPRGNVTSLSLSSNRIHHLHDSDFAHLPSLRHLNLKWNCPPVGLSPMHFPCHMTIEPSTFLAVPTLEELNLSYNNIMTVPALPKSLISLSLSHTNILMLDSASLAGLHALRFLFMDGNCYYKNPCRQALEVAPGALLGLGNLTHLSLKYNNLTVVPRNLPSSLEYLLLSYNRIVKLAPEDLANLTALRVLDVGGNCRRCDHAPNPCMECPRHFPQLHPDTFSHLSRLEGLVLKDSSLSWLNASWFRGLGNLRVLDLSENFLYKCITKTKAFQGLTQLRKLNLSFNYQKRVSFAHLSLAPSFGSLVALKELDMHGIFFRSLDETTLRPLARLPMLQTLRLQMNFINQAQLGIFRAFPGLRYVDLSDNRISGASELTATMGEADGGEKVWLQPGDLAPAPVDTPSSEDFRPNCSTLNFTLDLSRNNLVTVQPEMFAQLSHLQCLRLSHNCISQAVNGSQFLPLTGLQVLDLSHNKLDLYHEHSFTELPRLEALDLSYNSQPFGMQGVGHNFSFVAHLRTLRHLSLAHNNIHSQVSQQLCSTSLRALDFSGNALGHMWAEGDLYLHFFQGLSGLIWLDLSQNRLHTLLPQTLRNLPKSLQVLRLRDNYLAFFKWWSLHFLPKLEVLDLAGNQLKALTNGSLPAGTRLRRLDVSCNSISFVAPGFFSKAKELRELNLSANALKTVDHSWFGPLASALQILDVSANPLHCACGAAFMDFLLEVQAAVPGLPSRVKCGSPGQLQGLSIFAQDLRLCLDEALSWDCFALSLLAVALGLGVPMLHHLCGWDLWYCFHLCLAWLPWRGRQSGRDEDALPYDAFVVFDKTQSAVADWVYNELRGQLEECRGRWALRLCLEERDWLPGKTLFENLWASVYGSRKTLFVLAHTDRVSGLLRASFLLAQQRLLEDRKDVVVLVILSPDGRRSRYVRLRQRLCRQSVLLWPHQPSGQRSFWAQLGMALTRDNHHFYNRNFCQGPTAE
The experiment can be described thus: Human PBMC cell-based assay, TLR9 agonist ODN-2216 stimulation, cytokine (IL-6 and IFNα) readout. The note with it: human PBMCs, ODN-2216 3 μM, 6 hours; Table 26; read-out: TLR-9 EC50. The procedure, abridged: as §1

Where [3] appears, read: GS-986 400 nM, 6 hours, Table 26.

Consider `Cc1cc(-c2[nH]c3cc(-c4ccc(N5CCNCC5)nc4)ccc3c2C)cc(C)n1` [Example 1, 2-(2,6-dimethylpyridin-4-yl)-3-methyl-6-(6-(piperazin-1-yl)pyridin-3-yl)-1H-indole], for which the figures for the EC50 in experiment [1] (setting [3]) and in experiment [2] were 18.1 nM and 51.9 nM, respectively.

For `Cc1cc(-c2[nH]c3cc(-c4ccc(N5CCN(CCO)CC5)nc4)ccc3c2C)cc(C)n1` [Example 37, 2-(4-(5-(2-(2,6-dimethylpyridin-4-yl)-3-methyl-1H-indol-6-yl)pyridin-2-yl)piperazin-1-yl)ethan-1-ol], the EC50 – broadly, the concentration at which the effect is half-maximal – was determined as 17.3 nM in experiment [1] (setting [3]) and 37.5 nM in experiment [2].

Turning to `Cc1cc(-c2[nH]c3cc(C4CCNCC4)ccc3c2C)cc(C)n1` [Example 48, 2-(2,6-dimethylpyridin-4-yl)-3-methyl-6-(piperidin-4-yl)-1H-indole], the EC50 was determined as 692 nM in experiment [1] (setting [3]) and 136 nM in experiment [2].

On to `Cc1cc(-c2[nH]c3cc(C4CCCNC4)ccc3c2C)cc(C)n1` (stereo not shown) [Example 53], for which the EC50 in experiment [1] (setting [3]) was more than 1000 nM; in experiment [1] (Table 27 comparison), more than 1000 nM; in experiment [2], 181 nM.

On to `Cc1cc(-c2[nH]c3cc(C4CCNCC4)ccc3c2C(C)C)cn2ncnc12` [Example 55], for which the figures for the EC50 in experiment [1] (setting [3]) and in experiment [2] were 4.8 nM and 3980 nM, respectively.

As for `Cc1c(-c2cc(C)c3ncnn3c2)[nH]c2cc(-c3ccc(N4CCNCC4)nc3)ccc12` [Example 71], the EC50 came to 1.2 nM in experiment [1] (setting [3]) and 630 nM in experiment [2].

Take `Cc1cc(-c2[nH]c3cc(-c4ccc(N5CCNCC5)nc4)ccc3c2C2CC2)cn(C)c1=O` [Example 165]: the concentration for a half-maximal effect (EC50) in experiment [1] (setting [3]) was 0.33 nM; in experiment [2], 186 nM.

As for `CCc1c(-c2cc(C)c3ncnn3c2)[nH]c2cc(-c3ccc(N4CCNCC4)nc3)ccc12` [Example 167, 6-(3-ethyl-6-(6-(piperazin-1-yl)pyridin-3-yl)-1H-indol-2-yl)-8-methyl-[1,2,4]triazolo[1,5-a]pyridine], the values for the EC50 in experiment [1] (setting [3]) and in experiment [2] were 0.17 nM and 393 nM, respectively.

With `CCc1c(-c2cc(OC)c3ncnn3c2)[nH]c2cc(-c3ccc(N4CCNCC4)nc3)ccc12` [Example 169], the results for the EC50 in experiment [1] (setting [3]) and in experiment [2] were 0.13 nM and 502 nM, respectively.
